These results are taken from patent US20030138812A1, “Assessment of ecosystem health by evaluating multiple biomarkers in a nonhuman organism” (priority 2000, published 2003).

The structures appear in SMILES notation. Like-named read-outs stand apart in the source and are kept apart here. Marks after values point to notes of the source that are not given here.

The test system of data set [1] is Palaeomonetes pugio (grass shrimp). Kind of data set: Atrazine stress: biomarker responses in grass shrimp. The format is in vivo. The conditions noted are these: for B-crystallin / Metallo. (metallothionein) / SOD (Mn SOD) / ubiquitin: 8-hour exposure. The protocol: (§1) During the seven-day acclimation, grass shrimp were subject to a […] photosynthetic-active-radiation 14 hour photoperiod at 22° C. […] Dissolved oxygen, ammonia content, and temperature were continually monitored throughout the seven-day chamber acclimation.
Atrazine stress—Grass shrimp were exposed to […], or 1 mg/L of an acetone stock of technical grade atrazine (99%).
(§2) Samples were vortexed for 30 seconds and then centrifuged at 10,000× g for 5 minutes. The supernatant was placed in a new tube for LPO and GSH analyses. Protein concentration of samples were assayed by the method of Ghosh et al. (1988), supra.
(§3) Samples were then boiled for 3 minutes, allowed to sit at 25° C. for 5 minutes, and then centrifuged at 10,000× g for 5 minutes. […] The sample was then subjected to another protein concentration assay.
(§4) Samples were analyzed for LPO and total GSH content following the manufacturer's instruction. Samples for each assay were analyzed in triplicate, and sample means provided independent unit of statistical analysis.
(§5) All samples were analyzed in triplicate. ELISPOT technique on nitrocellulose membrane was employed using a dot blot apparatus.

Data set [2] concerns Ilyanassa obsoleta (mud snails). Nature of the data set: Atrazine exposure: biomarker responses in mud snails. The format is in vivo. The conditions noted are these: 8-hour exposure. The procedure: Tanks were aerated with air stones. Snails were fed commercially available algal pellets. […]
(§6) Samples for each assay were analyzed in triplicate.
(§7) Sample was then subjected to another protein concentration assay.
(§8) All samples were analyzed in triplicate.

Data set [3] has as its system Palaeomonetes pugio (grass shrimp). It counts as in vivo. The text has this:
Purified protein of each cellular parameter was run along side control and treated samples.

The subject of data set [4] is Ilyanassa obsoleta (mud snails). The protocol:
To determine that the antibodies bound to their specific targets, preliminary experiments were conducted to ensure the validity of the antibody assays. Snails were exposed either to high temperature, cadmium, ethanol, or acetone, homogenized in an SDS/50 mM dithiothreitol buffered solution, subjected to SDS-PAGE, immunoblotted to PVDF membrane, and assayed with at least 3 different antibodies per cellular parameter. […] Purified protein of each cellular parameter was run beside control and treated samples.

For data set [5], the system named is Palaeomonetes pugio (grass shrimp). Nature of the data set: Cadmium stress: biomarker responses in grass shrimp. The format is in vivo. The conditions noted are these: for Cyt. P450 (cytochrome P450 2E1) / SOD (Mn SOD): 8-hour exposure. The protocol:
as §1
Cadmium stress—Grass shrimp were subjected to an 8-hour exposure to 0 M, […], and […] cadmium chloride. The solvent carrier was water.
as §2, §3, §4, §5

Data set [6] concerns Ilyanassa obsoleta (mud snails). The format is in vivo. The protocol:
Tanks were aerated with air stones. Snails were fed commercially available algal pellets.
The solvent carrier was water.
No evidence of either was found.
as §6, §7, §8

Data set [7] shares this test system. Nature of the data set: Endosulfan exposure: biomarker responses in mud snails. The conditions noted are these: 8-hour exposure.
The mark [8] stands for this setting: control to high atrazine treatments, grass shrimp.
[9] abbreviates: high: 50 M cadmium chloride, 8-hour exposure.
[10] abbreviates: low: 5 M cadmium chloride, 8-hour exposure.

With `CCNc1nc(Cl)nc(NC(C)C)n1` [Atrazine, atrazine], in data set [1] (setting [8]), the “Levels of LPO decreased” value is 38% and the “levels of Hsp60 increased” value is “nearly five-fold”. Moreover, in data set [1] (high: 1 mg/L atrazine), the B-crystallin is reported as 190 ± 27 ng Hsp or B-crystallin/ g total protein, the “Metallo. (metallothionein)” value is on record as 1.7 ± 0.35 ng metallothionein/mg total protein and the “SOD (Mn SOD)” value came to 7.9 ± 1.86 g SOD/ mg total protein. Further, in data set [1] (low: 1 g/L atrazine), the B-crystallin is on record as 290 ± 27 ng Hsp or B-crystallin/ g total protein, the “Metallo. (metallothionein)” value is reported as 1.4 ± 0.17 ng metallothionein/mg total protein, the “SOD (Mn SOD)” value is reported as 4.3 ± 0.23 g SOD/ mg total protein and the ubiquitin is recorded as 1.44 ± 0.068 nanog ubiquitin/ g total protein. In data set [1] (medium: 500 g/L atrazine), the B-crystallin was 250 ± 45 ng Hsp or B-crystallin/ g total protein, the “Metallo. (metallothionein)” value is listed as 1.8 ± 0.45 ng metallothionein/mg total protein, the “SOD (Mn SOD)” value stood at 4.6 ± 1.61 g SOD/ mg total protein and the ubiquitin is recorded as 1.38 ± 0.066 nanog ubiquitin/ g total protein. In data set [2] (high: 1 mg/L atrazine), the B-crystallin is listed as 25 ± 2.1 pg Hsp or B-crystallin/ g total protein, the “Cyt. P450 (cytochrome P450 2E1 homologue)” value is recorded as 17.8 ± 3.07 relative protein concentrations, the GSH was 83 ± 3.1 mM GSH/ g total protein and the Hsp22 is 6 ± 1.9 pg Hsp or B-crystallin/ g total protein. For the same compound, in data set [2] (high: 1 mg/L atrazine), the Hsp60 is reported as 0.158 ± 0.0086 pg Hsp or B-crystallin/ g total protein, the Hsp70 is 121.8 ± 6.08 pg Hsp or B-crystallin/ g total protein, the LPO amounted to 1.32 ± 0.037 mM LPO/mg total protein and the “Metallo (metallothionein)” value is listed as 8.6 ± 1.72 ng metallothionein/mg total protein. Further, in data set [2] (high: 1 mg/L atrazine), the “Mn SOD” value was 7.8 ± 1.66 relative protein concentrations and the ubiquitin was 41 ± 3.7 ng ubiquitin/ g total protein. Besides, in data set [2] (low: 1 g/L atrazine), the B-crystallin is recorded as 29 ± 1.3 pg Hsp or B-crystallin/ g total protein, the “Cyt. P450 (cytochrome P450 2E1 homologue)” value is reported as 18.0 ± 2.90 relative protein concentrations, the GSH is reported as 85 ± 3.6 mM GSH/ g total protein and the Hsp22 was 6 ± 2.0 pg Hsp or B-crystallin/ g total protein. For the same compound, in data set [2] (low: 1 g/L atrazine), the Hsp70 is 123.4 ± 7.05 pg Hsp or B-crystallin/ g total protein, the LPO amounted to 1.16 ± 0.040 mM LPO/mg total protein, the “Metallo (metallothionein)” value is listed as 18.2 ± 2.06 ng metallothionein/mg total protein and the “Mn SOD” value is 9.0 ± 1.76 relative protein concentrations. Besides, the ubiquitin in data set [2] (low: 1 g/L atrazine) is given as 42 ± 3.9 ng ubiquitin/ g total protein.

For the compound `CC(C)=O` [acetone], in data set [3] (immunoblot), the “induction of Hsp70 homologues” value was “inducible by all treatments except ethanol and acetone”; the “induction of protein detected by Mn SOD antibody (about 23 kDa)” value (“induction … (about 23 kDa)” for short) is listed as “not by exposure to ethanol or acetone”. The “induction of proteins detected by Cytochrome P450 2E1 antibody (ca. 53 kDa)” value (“induction of proteins detected … (ca. 53 kDa)” for short) in data set [3] (in vivo) is “ethanol- and acetone-inducible”. Also, in data set [4] (immunoblot), the “induction of Hsp70 homologues” value was “inducible by all treatments except ethanol and acetone”; the “induction of protein detected by Mn SOD antibody (about 26 kDa)” value was “not by exposure to acetone”. The “induction of protein detected by Cytochrome P450 2E1 antibody (ca. 50 kDa)” value (from here on “induction of protein detected … (ca. 50 kDa)”) in data set [4] (in vivo) was “ethanol- and acetone-inducible”.

In the case of `[Cl][Cd][Cl]` [Cadmium Chloride, cadmium chloride], in data set [3] (immunoblot), the “induction … (about 23 kDa)” value was “inducible by both heat stress and cadmium”; the “induction of proteins detected … (ca. 53 kDa)” value is given as “did not elicit significant accumulation”; the “induction of proteins detected by metallothionein antibody (ca. 7 k to 12 kDa)” value is “cadmium-inducible”. For the same compound, the “Metallothionine increase in mean levels compared to the control” value in data set [5] (high CdCl2 concentrations, grass shrimp) is given as “more than a six-fold increase”. In data set [5] (high: 50 uM cadmium chloride), the “Cyt. P450 (cytochrome P450 2E1)” value was 12.9 ± 1.26 relative protein concentrations and the “SOD (Mn SOD)” value turned out to be 4.0 ± 0.16 g SOD/ mg total protein. Also, in data set [5] (low: 1 uM cadmium chloride), the “Cyt. P450 (cytochrome P450 2E1)” value is 14.5 ± 1.19 relative protein concentrations and the “SOD (Mn SOD)” value amounted to 3.3 ± 0.12 g SOD/ mg total protein. Also, in data set [5] (medium: 5 uM cadmium chloride), the “Cyt. P450 (cytochrome P450 2E1)” value is listed as 13.4 ± 1.48 relative protein concentrations and the “SOD (Mn SOD)” value was found to be 4.3 ± 0.80 g SOD/ mg total protein. In data set [4] (immunoblot), the “induction of protein detected … (ca. 50 kDa)” value was “did not elicit significant accumulation”; the “induction of protein detected by Mn SOD antibody (about 26 kDa)” value is “inducible by both heat stress and cadmium”. Moreover, in data set [6] (high CdCl2 concentrations, mud snails), the “Metallothionine increase in mean levels compared to the control” value is on record as “more than a six-fold increase”. In data set [6] (setting [9]), the “Cyt. P450 (cytochrome P450 2E1 homologue)” value is recorded as 27.4 ± 3.14 relative protein concentrations and the LPO was 1.16 ± 0.093 mM LPO/mg total protein. In addition, in data set [6] (setting [10]), the “Cyt. P450 (cytochrome P450 2E1 homologue)” value was 28.6 ± 3.11 relative protein concentrations, the Hsp60 is 0.419^b ± pg Hsp or B-crystallin/ g total protein and the LPO was determined as 1.1 mM LPO/mg total protein.

As for `O=S1OCC2C(CO1)C1(Cl)C(Cl)=C(Cl)C2(Cl)C1(Cl)Cl` (stereo not shown) [Endosulfan, endosulfan], the B-crystallin is reported as 13 ± 2.7 pg Hsp or B-crystallin/ g total protein in data set [7] (high: 1 g/L endosulfan), 12 ± 3.1 pg Hsp or B-crystallin/ g total protein in data set [7] (low: 50 ng/L endosulfan) and 11 ± 3.9 pg Hsp or B-crystallin/ g total protein in data set [7] (medium: 500 ng/L endosulfan). Also, the Hsp26 in data set [7] (high: 1 g/L endosulfan) is given as 23 ± 3.3 pg Hsp or B-crystallin/ g total protein; in data set [7] (low: 50 ng/L endosulfan) it was 20 ± 12.673 pg Hsp or B-crystallin/ g total protein; in data set [7] (medium: 500 ng/L endosulfan), 19 ± 5.9 pg Hsp or B-crystallin/ g total protein. The “Metallo. (metallothionein)” value is 14 ± 3.11 ng metallothionein/mg total protein in data set [7] (high: 1 g/L endosulfan), 19.4 ± 1.99 ng metallothionein/mg total protein in data set [7] (low: 50 ng/L endosulfan) and 22.2 ± 3.15 ng metallothionein/mg total protein in data set [7] (medium: 500 ng/L endosulfan).

In the case of `CCO` [ethanol], in data set [3] (in vivo), the “induction of Hsp70 homologues” value is “inducible by all treatments except ethanol and acetone”; the “induction … (about 23 kDa)” value is reported as “not by exposure to ethanol or acetone”; the “induction of proteins detected … (ca. 53 kDa)” value was “ethanol- and acetone-inducible”. Further, in data set [4] (in vivo), the “induction of Hsp70 homologues” value was “inducible by all treatments except ethanol and acetone”; the “induction of protein detected … (ca. 50 kDa)” value was “ethanol- and acetone-inducible”.
